From patent US20250120958A1, “Treatment of GM2 Gangliosidosis” (Azafaros B.V., priority 2022, published 2025)
Where two headings read alike, the source gives them in different places.

Columns and labels:
Hexb (+/−) mice = assay: Lifespan of heterozygous Hexb (+/−) mice under treatment; details: 3 mg/kg/day
Method: For all cohorts, drug and/or vehicle (control) were administered by gastric gavage once a day, between 8.00-12.00 am, from the age of 30 days until euthanasia.
In addition, animals heterozygous for the Hexb gene (+/−) were treated with vehicle or 3 mg/kg/day. Dosing continued until the animals reached their humane endpoints determined in a blinded fashion by the animal care staff and primarily consisted of the inability to reach sternal recumbency after 10 seconds and, if achieved, was additionally verified by the senior laboratory technician prior to the commencement of the animal being euthanized.

[1] = Stability of dosing formulation; type: physicochemical; details: 0.01 mg/mL-2 mg/mL in purified water/citric acid/NaOH, storage 15-25° C.
From the text: • 1. Introduction and preparation of vehicle control • 1.1. Read the method prior to proceeding with laboratory work • 1.2. Read Study Plan • 1.3. Ensure the work-station is clean and select the correct equipment, clean glassware etc. for the study. • 1.4. Formulate in ascending order of concentration. • 1.5. Start with control group—measure the required volume of purified water and magnetically stir. Whilst magnetically stirring, adjust pH to 3.5-2.5 using 1 M citric acid. Record volumes in raw data. • 1.6. Stir for a minimum of 30 minutes. Record stir times in raw data. • 1.7. Adjust the pH to 4.5-5.5 using 0.1 M NaOH. Record volumes in raw data. • 1.8. Stir for a minimum of 20 minutes using a magnetic stirrer. Record stir times in the raw data. • 1.9. Sample at this point if required. • 2. Test item formulations • 2.1. Weigh the required amount of test item: e.g., For a 0.9 mg/mL target concentration in 600 mL, weigh 540 mg. • 2.2. Add 70% of the final volume of purified water to the test item to obtain a thin suspension (may be difficult to see at these low concentrations): e.g., 420 mL • 2.3. Add not more than 3 molar equivalents of citric acid, and record the pH which should be pH 3.5-2.5, e.g., 3.74 mL of 1 M citric acid solution in water. • Note: The suspension should clear up as an indication for dissolution of the test item. • 2.4. […]

[2] = test system: Sandhoff mouse model (Hexb (−/−)); assay: Survival study in Sandhoff mouse model; type: in vivo; details: Hexb (−/−) mice
From the text: (strain: B6; 129S4-Hexbtm1Rlp/J). The mouse line was maintained by crossing homozygous −/− males with heterozygous females (generating litters with 50%−/− and 50%+/−) under specific pathogen-free conditions. All mice were housed in individual, ventilated cages (IVCs) with 12-h light/dark cycles with food and water ad libitum. Young-adult mice of the same genetic C57BL/6 background were from Jackson Laboratories. Breeding of Hexb mutants will target needs of the “Long-term” cohorts first, followed by the “16-week” biomarker study.
Cohort 1: There were a total of 6 dose groups and 2 vehicle groups using both Hexb+/− and Hexb−/− animals. […] Dosing occurred daily from day 30 to day 170, unless the animal was prematurely euthanized per protocol.
A subsequent study to explore lower doses was also performed (in the same manner as in Example 2) in which doses of 0.02, 0.06, 0.2 and 0.5 mg/kg/day were used. […] It is unclear why the 0.06 mg/kg/day had less survival as formulations were checked and confirmed accurate dosing (internal data).

[3] = Plasma pharmacokinetics after 16 weeks of once daily administration (LC-MS/MS); type: in vivo, mouse
Method: At the end of the defined treatment period, mice were humanely euthanized by transcardial perfusion with Ringer solution after C02 asphyxiation. […]. Before perfusion, blood samples were collected via cardiac puncture into K2EDTA tubes and stored on wet ice. Whole blood was processed to plasma by centrifugation (3000 g for 10 minutes at 5° C.) within 30 min of collection and stored at −75° C.
Unless otherwise stated, the methodology and sample collection were performed as in Example 2.

[4] = test system: GFAP (Glial fibrillary acidic protein); assay: GFAP immunofluorescence in brain sections; type: in vivo, mouse; details: for GFAP staining, treated vs vehicle: midsections
From the text: Brain samples were collected, rinsed with saline and blotted dry. Samples were fixed in 4% PFA for immunohistochemical analyses; frozen and kept for gene expression and molecular biology analyses; and used frozen for LC-MS/MS analysis.
GFAP (Glial fibrillary acidic protein) a class-III intermediate filament protein, is a cell-specific marker that, during the development of the central nervous system, distinguishes astrocytes from other glial cells. Intermediate filaments form networks that provide support and strength to cells. Several molecules of glial fibrillary acidic protein bind together to form the type of intermediate filament found in astroglial cells. Astroglial cells support and nourish cells in the brain and spinal cord. If brain or spinal cord cells are injured through trauma or disease, astroglial cells react by rapidly producing more glial fibrillary acidic protein.

OC[C@H]1[C@@H](O)[C@H](O)[C@@H](O)CN1CCCCCOCc1ccc(-c2ccccc2)c(F)c1 [AZ-3102]
effect on lifespan compared to vehicle (Hexb (+/−) mice): no effect on lifespan
Stability of formulation [1]: 8 days
median survival ([2]; 0.02 mg/kg/day): 120 days
median survival ([2]; 0.06 mg/kg/day): 116 days
median survival ([2]; 0.2 mg/kg/day): 133 days
median survival ([2]; 0.5 mg/kg/day): 138 days
increase of average median survival ([2]; 0.5-6 mg/kg/day oral gavage daily, vs vehicle (115 days)): 26 days
minimal effective dose on survival ([2]; once daily gavage): 0.2 mg/kg/day
increase in survival / life expectancy ([2]; treated vs vehicle/untreated): 22%
Cmax difference between lowest and highest dose ([3]; 6 vs 0.5 mg/kg/day): approximately 7 fold
Cmax ([3]; Hexb (−/−) (Sandhoff mice), mouse, oral, plasma, 0.5 to 6 mg/kg/day, steady state, read-out: Cmax, range over doses): 100 to 674 ng/mL
AUC(0-t) ([3]; Hexb (−/−) (Sandhoff mice), mouse, oral, plasma, 0.5 to 6 mg/kg/day, steady state, read-out: mean AUC0-24, range over doses): 417 to 3610 ng·h/mL
AUC(0-t) ([3]; Hexb (−/−) (Sandhoff model), mouse, plasma, po, Sand A, Hexb (−/−), 6 mg/kg/day, 16 weeks once daily, read-out: AUC0-24): 3610 ng·h/mL
Cmax ([3]; Hexb (−/−) (Sandhoff model), mouse, plasma, po, Sand A, Hexb (−/−), 6 mg/kg/day, 16 weeks once daily, read-out: Cmax): 674 ng/mL
AUC(0-t) ([3]; Hexb (−/−) (Sandhoff model), mouse, plasma, po, Sand B, Hexb (−/−), 3 mg/kg/day, 16 weeks once daily, read-out: AUC0-24): 1980 ng·h/mL
Cmax ([3]; Hexb (−/−) (Sandhoff model), mouse, plasma, po, Sand B, Hexb (−/−), 3 mg/kg/day, 16 weeks once daily, read-out: Cmax): 446 ng/mL
AUC(0-t) ([3]; Hexb (−/−) (Sandhoff model), mouse, plasma, po, Sand D, Hexb (−/−), 1.5 mg/kg/day, 16 weeks once daily, read-out: AUC0-24): 987 ng·h/mL
Cmax ([3]; Hexb (−/−) (Sandhoff model), mouse, plasma, po, Sand D, Hexb (−/−), 1.5 mg/kg/day, 16 weeks once daily, read-out: Cmax): 159 ng/mL
AUC(0-t) ([3]; Hexb (−/−) (Sandhoff model), mouse, plasma, po, Sand E, Hexb (−/−), 0.5 mg/kg/day, 16 weeks once daily, read-out: AUC0-24): 417 ng·h/mL
Cmax ([3]; Hexb (−/−) (Sandhoff model), mouse, plasma, po, Sand E, Hexb (−/−), 0.5 mg/kg/day, 16 weeks once daily, read-out: Cmax): 100 ng/mL
concentration at 24 h ([3]; Hexb (−/−) and Hexb (+/−), mouse, plasma, oral, all doses): ~1 ng/mL
Cmax/D ([3]; Sand E, Hexb (−/−), 0.5 mg/kg/day): 200 (ng/mL)/(mg/kg)
AUC(0-t) ([3]; mouse, plasma, po, Het B, Hexb (+/−), 3 mg/kg/day, 16 weeks once daily, read-out: AUC0-24): 1960 ng·h/mL
Cmax ([3]; mouse, plasma, po, Het B, Hexb (+/−), 3 mg/kg/day, 16 weeks once daily, read-out: Cmax): 370 ng/mL
GFAP immunofluorescence, Mean ([4]; caudal section of the brain, Het (Hexb+/−), Female): 508.99
GFAP immunofluorescence, Mean ([4]; caudal section of the brain, Het (Hexb+/−), Male): 425.10
GFAP immunofluorescence, Mean ([4]; caudal section of the brain, KO (Hexb−/−), Female): 1656.84
GFAP immunofluorescence, Mean ([4]; caudal section of the brain, KO (Hexb−/−), Male): 1762.82
GFAP immunofluorescence, Mean ([4]; midsection of the brain, Het (Hexb+/−), Female): 298.81
GFAP immunofluorescence, Mean ([4]; midsection of the brain, Het (Hexb+/−), Male): 395.99
GFAP immunofluorescence, Mean ([4]; midsection of the brain, KO (Hexb−/−), Female): 747.75
GFAP immunofluorescence, Mean ([4]; midsection of the brain, KO (Hexb−/−), Male): 866.38
GFAP staining, treated vs vehicle ([4]; Hexb−/− females): statistical decrease
GFAP staining, treated vs vehicle ([4]; Hexb−/− males): trend to having a decrease
